The numbers were not newly measured in patent US20050112210A1, “Eye nutritional supplement” (priority 2003, published 2005), which cites them from elsewhere.

This data set concerns A2E-epoxidation. Conditions: singlet oxygen generated in the presence of A2E.
For the molecule `Oc1ccc(C=Cc2cc(O)cc(O)c2)cc1` [resveratrol], the “effect on A2E-epoxidation” value is on record as “reduced A2E-epoxidation by quenching singlet oxygen”.

Consider vitamin E, for which the “effect on A2E-epoxidation” value is on record as “reduced A2E-epoxidation by quenching singlet oxygen”.

`Cc1cc(C(C)(C)C)c(O)c(C(C)(C)C)c1` [butylated hydroxytoluene]: the “effect on A2E-epoxidation” value is listed as “reduced A2E-epoxidation by quenching singlet oxygen”.
